{"source": "ChEMBL document CHEMBL1201862", "about": "“PubChem BioAssay data set” (2004)", "key": {"[1]": {"biological_target": "Melanin-concentrating hormone receptor 1 (Homo sapiens, UniProt Q99705)", "experiment": "Late-stage fluorescence-based counterscreen for antagonists of the G-protein coupled receptor 7 (GPR7): cell-based dose response assay to identify antagonists of the melanin-concentrating hormone receptor 1 (MCHR1). [Related pubchem assays (depositor defined):AID1861, AID1880, AID1952, AID2148, AID2251, AID2257, AID485339]", "assay_type": "functional"}, "[2]": {"biological_target": "T1, Neuropeptides B/W receptor type 1 (Homo sapiens, UniProt P48145)", "T1 sequence (P48145 whole entry)": "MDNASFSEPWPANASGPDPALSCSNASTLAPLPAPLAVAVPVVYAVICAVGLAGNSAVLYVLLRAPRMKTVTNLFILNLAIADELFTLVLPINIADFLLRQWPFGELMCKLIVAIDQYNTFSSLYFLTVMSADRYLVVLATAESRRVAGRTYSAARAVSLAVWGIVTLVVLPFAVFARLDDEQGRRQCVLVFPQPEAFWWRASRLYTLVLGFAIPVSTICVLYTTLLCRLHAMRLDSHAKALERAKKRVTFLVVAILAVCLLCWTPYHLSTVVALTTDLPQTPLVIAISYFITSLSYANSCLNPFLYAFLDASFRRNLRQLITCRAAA", "experiment": "GPR7 antagonist potency, late-stage follow-up, cell-based, fluorescence, dose response (AID 463251)", "assay_type": "functional"}, "[3]": {"biological_target": "T2, Eukaryotic translation initiation factor 2-alpha kinase 3 (Homo sapiens, UniProt Q9NZJ5)", "T2 sequence (Q9NZJ5 whole entry)": "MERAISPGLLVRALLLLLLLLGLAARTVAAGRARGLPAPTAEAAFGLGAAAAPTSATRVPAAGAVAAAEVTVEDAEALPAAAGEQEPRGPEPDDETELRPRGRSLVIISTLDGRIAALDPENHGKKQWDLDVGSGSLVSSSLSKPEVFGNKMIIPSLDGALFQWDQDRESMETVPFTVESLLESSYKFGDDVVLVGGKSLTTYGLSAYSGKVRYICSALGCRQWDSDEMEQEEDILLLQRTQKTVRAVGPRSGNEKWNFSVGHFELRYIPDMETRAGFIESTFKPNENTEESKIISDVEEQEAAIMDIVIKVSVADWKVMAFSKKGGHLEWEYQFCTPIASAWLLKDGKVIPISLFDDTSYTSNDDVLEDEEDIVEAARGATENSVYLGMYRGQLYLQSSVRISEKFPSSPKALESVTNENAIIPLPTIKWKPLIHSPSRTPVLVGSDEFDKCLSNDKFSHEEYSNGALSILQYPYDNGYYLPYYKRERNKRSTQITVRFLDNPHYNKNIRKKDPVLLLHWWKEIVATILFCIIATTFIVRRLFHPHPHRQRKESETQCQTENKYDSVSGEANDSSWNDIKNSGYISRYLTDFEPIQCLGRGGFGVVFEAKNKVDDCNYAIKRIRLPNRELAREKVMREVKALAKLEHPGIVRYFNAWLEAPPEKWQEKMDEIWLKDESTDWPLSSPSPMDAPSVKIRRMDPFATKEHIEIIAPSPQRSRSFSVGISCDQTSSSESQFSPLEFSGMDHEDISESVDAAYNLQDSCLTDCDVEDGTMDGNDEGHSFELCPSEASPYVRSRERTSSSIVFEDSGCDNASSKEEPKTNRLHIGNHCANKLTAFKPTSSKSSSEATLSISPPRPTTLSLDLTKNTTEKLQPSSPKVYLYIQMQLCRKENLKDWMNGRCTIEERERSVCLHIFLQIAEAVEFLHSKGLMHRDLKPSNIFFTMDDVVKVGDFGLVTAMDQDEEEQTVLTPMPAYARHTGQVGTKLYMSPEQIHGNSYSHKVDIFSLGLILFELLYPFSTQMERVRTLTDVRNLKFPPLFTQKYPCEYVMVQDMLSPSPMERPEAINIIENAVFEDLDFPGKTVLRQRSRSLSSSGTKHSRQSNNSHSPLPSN", "experiment": "Dose response cell-based high-throughput screening assay to measure PERK inhibition. [Related pubchem assays: 1416 ]", "assay_type": "functional"}, "[4]": {"biological_target": "T2, Eukaryotic translation initiation factor 2-alpha kinase 3", "experiment": "Counterscreen assay for PERK inhibitors: Dose response cell-based high throughput screening assay to measure inhibition of PERK at 6 hours. [Related pubchem assays: 1522, 1416 ]", "assay_type": "functional"}, "Cytochrome P450 2D6 [5]": {"biological_target": "T3, Cytochrome P450 2D6 (Homo sapiens, UniProt P10635)", "T3 sequence (P10635 whole entry)": "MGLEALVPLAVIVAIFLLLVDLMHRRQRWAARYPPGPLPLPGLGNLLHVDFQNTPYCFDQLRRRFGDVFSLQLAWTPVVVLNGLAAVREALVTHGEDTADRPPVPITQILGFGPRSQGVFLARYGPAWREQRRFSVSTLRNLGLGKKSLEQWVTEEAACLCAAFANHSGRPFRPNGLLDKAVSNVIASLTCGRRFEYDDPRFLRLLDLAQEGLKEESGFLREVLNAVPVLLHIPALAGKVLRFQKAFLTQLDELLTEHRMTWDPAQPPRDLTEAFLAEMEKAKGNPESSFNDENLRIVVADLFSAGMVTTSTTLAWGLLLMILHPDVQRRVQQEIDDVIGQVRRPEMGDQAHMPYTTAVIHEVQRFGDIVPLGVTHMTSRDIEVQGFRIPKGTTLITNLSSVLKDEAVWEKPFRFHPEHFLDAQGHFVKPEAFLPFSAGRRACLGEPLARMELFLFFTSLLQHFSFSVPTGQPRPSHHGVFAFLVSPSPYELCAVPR"}, "Cytochrome P450 2D6 [6]": {"biological_target": "T3, Cytochrome P450 2D6", "remark": "listed apart in the source"}, "Aspartyl aminopeptidase": {"biological_target": "Aspartyl aminopeptidase (Plasmodium falciparum 3D7, UniProt Q8I2J3)", "sequence (Q8I2J3 whole entry)": "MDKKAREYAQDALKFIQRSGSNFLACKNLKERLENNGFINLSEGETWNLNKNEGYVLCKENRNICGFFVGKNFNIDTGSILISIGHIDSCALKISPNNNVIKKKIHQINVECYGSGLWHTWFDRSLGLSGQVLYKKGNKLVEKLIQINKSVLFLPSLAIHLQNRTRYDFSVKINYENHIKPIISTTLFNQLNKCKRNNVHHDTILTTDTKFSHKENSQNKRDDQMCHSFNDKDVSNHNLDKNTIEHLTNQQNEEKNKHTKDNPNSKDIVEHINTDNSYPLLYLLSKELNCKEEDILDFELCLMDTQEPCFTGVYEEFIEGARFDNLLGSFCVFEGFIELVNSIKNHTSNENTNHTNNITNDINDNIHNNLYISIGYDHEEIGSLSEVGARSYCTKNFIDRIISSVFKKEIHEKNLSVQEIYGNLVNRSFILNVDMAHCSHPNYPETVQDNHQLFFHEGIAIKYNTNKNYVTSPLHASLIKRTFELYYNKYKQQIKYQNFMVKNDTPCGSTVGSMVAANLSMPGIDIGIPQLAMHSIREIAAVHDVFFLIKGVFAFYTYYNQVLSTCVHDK"}, "Procathepsin L": {"biological_target": "Procathepsin L (Homo sapiens, UniProt P07711)"}, "[7]": {"biological_target": "T4, Kappa-type opioid receptor (Homo sapiens, UniProt P41145)", "T4 sequence (P41145 whole entry)": "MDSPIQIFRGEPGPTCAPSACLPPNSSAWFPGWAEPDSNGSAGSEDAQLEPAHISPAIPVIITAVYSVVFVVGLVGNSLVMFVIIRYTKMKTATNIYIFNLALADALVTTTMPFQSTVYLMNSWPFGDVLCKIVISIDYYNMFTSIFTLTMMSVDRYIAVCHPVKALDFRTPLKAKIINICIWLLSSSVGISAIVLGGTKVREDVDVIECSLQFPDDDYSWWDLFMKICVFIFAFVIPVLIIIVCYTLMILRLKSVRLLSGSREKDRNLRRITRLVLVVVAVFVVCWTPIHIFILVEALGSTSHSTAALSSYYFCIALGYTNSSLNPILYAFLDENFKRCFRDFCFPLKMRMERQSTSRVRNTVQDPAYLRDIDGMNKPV", "assay_type": "functional"}, "[8]": {"biological_target": "T4, Kappa-type opioid receptor", "assay_type": "functional", "remark": "listed apart in the source"}, "Beta-galactosidase": {"biological_target": "Beta-galactosidase (Escherichia coli, UniProt Q8VNN2)", "assay_type": "functional"}, "[9]": {"biological_target": "T5, Delta-type opioid receptor (Homo sapiens, UniProt P41143)", "T5 sequence (P41143 whole entry)": "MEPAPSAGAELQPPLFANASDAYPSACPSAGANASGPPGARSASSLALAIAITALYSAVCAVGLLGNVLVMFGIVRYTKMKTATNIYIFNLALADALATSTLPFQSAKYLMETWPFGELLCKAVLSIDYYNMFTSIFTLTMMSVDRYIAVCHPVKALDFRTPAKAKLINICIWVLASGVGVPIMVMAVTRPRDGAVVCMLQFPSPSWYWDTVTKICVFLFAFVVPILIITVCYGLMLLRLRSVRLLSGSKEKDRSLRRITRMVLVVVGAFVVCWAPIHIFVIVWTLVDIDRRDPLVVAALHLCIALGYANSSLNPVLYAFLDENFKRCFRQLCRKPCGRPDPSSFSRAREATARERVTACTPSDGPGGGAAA", "experiment": "HTS Image-Based Screen for Antagonists of the DOR Receptor. [Related pubchem assays (depositor defined):AID1777, AID1785, AID1786, AID2133]", "assay_type": "functional"}, "Mu-type opioid receptor": {"biological_target": "Mu-type opioid receptor (Homo sapiens, UniProt P35372)", "experiment": "HTS Image-Based Screen for Agonists of the MOR Receptor. [Related pubchem assays (depositor defined):AID1777, AID1785, AID1786, AID2133]", "assay_type": "functional"}, "[10]": {"biological_target": "T5, Delta-type opioid receptor", "experiment": "HTS Image-Based Screen for Agonists of the DOR Receptor. [Related pubchem assays (depositor defined):AID1777, AID1786, AID2133]", "assay_type": "functional"}, "[11]": {"biological_target": "T6, Voltage-gated N-type calcium channel alpha-1B subunit/Amyloid beta A4 precursor protein-binding family A member 1 (Homo sapiens, UniProt Q00975+Q02410)", "T6 sequence (Q00975 whole entry)": "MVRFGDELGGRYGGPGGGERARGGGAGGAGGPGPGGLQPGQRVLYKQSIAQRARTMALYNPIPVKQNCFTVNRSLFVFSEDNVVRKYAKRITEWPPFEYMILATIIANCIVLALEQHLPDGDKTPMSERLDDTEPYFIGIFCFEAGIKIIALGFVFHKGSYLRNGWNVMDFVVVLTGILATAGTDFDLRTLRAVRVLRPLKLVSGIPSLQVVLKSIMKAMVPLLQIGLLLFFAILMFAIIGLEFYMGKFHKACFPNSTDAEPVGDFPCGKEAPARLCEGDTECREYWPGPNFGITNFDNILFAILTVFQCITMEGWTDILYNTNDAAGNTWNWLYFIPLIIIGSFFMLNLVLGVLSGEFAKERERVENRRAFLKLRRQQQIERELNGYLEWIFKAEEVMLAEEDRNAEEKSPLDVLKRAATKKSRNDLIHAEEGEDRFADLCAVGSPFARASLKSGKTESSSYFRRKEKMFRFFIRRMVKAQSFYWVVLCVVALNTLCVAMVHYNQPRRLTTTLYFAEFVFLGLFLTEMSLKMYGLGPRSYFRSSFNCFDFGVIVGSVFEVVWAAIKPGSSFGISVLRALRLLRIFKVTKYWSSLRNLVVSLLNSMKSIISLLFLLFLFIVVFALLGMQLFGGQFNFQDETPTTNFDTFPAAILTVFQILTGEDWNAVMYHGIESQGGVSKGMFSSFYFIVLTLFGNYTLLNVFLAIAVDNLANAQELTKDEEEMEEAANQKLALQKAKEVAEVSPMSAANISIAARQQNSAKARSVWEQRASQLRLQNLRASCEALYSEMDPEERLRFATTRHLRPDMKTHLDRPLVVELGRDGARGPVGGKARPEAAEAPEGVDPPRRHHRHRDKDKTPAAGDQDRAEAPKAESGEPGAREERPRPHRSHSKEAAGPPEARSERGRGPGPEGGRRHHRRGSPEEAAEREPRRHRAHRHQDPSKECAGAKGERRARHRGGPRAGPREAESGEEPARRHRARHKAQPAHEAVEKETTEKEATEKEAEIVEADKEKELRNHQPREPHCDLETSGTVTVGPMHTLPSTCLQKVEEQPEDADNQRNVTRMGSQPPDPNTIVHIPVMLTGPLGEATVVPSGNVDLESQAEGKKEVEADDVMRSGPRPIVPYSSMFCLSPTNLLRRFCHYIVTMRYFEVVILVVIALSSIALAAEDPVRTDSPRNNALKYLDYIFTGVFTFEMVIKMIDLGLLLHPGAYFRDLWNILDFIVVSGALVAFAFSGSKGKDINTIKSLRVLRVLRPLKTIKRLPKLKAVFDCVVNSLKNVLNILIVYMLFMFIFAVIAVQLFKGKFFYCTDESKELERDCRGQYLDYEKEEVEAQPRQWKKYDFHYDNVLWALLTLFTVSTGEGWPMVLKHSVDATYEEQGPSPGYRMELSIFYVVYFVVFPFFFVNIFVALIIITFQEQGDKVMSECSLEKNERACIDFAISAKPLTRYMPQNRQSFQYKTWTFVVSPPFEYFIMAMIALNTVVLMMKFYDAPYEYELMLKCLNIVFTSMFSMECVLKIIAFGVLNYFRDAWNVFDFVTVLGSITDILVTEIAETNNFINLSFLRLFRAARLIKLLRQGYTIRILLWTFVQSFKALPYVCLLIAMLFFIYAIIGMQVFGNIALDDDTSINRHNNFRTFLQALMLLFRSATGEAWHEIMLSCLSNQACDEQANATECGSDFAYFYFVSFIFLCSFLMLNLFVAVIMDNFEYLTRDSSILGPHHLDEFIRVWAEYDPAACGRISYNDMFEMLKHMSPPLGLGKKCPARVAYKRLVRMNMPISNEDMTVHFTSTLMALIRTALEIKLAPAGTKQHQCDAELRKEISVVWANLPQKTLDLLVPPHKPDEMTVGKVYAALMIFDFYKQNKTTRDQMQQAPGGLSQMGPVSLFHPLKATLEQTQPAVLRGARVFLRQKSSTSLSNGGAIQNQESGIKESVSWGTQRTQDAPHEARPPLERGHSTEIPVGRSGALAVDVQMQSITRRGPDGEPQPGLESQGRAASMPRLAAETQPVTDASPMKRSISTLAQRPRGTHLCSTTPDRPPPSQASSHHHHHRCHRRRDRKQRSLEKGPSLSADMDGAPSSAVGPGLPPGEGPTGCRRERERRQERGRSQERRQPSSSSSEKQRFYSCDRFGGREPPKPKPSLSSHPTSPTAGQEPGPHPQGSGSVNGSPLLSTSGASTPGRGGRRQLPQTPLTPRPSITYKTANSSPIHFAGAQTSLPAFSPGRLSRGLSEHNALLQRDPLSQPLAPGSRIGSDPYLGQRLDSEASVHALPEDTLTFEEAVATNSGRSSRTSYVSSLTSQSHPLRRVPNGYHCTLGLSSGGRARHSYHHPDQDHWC", "T6 sequence (Q02410 whole entry)": "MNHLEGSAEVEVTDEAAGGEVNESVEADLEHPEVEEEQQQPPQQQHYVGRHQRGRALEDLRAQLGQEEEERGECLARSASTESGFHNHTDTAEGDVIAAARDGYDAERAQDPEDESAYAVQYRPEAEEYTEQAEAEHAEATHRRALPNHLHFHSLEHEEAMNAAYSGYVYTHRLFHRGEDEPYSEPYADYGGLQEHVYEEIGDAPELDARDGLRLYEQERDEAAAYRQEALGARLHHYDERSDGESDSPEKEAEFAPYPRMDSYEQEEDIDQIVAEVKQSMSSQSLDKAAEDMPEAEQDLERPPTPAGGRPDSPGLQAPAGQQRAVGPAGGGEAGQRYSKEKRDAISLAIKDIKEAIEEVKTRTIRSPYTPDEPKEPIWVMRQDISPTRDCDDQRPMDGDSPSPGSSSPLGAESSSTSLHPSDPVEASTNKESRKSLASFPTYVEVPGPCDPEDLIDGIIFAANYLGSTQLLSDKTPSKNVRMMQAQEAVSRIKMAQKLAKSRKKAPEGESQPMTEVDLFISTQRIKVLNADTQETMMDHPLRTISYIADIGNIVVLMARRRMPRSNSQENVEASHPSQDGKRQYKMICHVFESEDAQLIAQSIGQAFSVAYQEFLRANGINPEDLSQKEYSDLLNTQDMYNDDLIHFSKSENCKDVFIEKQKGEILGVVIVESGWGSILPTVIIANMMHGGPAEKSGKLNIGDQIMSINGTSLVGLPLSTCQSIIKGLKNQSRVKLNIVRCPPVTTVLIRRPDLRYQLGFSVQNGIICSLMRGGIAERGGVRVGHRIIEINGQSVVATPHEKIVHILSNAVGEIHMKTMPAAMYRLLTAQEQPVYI", "assay_type": "protein assay"}, "[12]": {"biological_target": "T6, Voltage-gated N-type calcium channel alpha-1B subunit/Amyloid beta A4 precursor protein-binding family A member 1", "assay_type": "protein assay", "remark": "listed apart in the source"}, "[13]": {"experiment": "insulin promoter down-regulators in MIN6 cells, imaging, high-content screening, mouse beta cells (AID 1628)", "assay_type": "functional"}, "[14]": {"experiment": "cytotoxicity in MIN6 insulinoma cells, dose response, cytotoxicity control, cell-based, mouse insulinoma (AID 2122);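 further: confirmatory high-throughput counterscreen run to flag cytotoxic compounds; mouse MIN-6 beta cells carrying an insulin promoter eGFP reporter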", "assay_type": "functional"}, "Exodeoxyribonuclease V": {"biological_target": "Exodeoxyribonuclease V (Escherichia coli (strain K12), UniProt P04993+P07648+P08394)", "experiment": "E. coli RecBCD inhibitors, dose response, counter-screen for AddAB inhibitor project, absorbance, V66 E. coli, mutant T4 phage (AID 492957)", "assay_type": "functional, cell-based, Escherichia coli str. K-12 substr. MG1655"}, "[15]": {"experiment": "Counterscreen for AddAB inhibitors: absorbance-based bacterial cell-based high throughput dose response assay for inhibitors of bacterial viability. [Related pubchem assays (depositor defined):AID435030, AID449728, AID449731, AID488942, AID488955, AID488956]", "assay_type": "functional"}, "[16]": {"experiment": "cytotoxicity in HEK-293T cells, dose response, cytotoxicity control for BCR NF-kB inhibitor project, luminescence, B-cell screen hits (AID 489021);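 further: HEK-293T cells carrying an NF-kB luciferase reporter; cells exposed to compound for about 14 hours before viability readout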", "assay_type": "functional, cell-based"}, "BJ [17]": {"test_system": "BJ", "experiment": "cells", "assay_type": "functional, cell-based", "settings": "Homo sapiens"}, "BJ [18]": {"test_system": "BJ", "experiment": "cytotoxicity toward BJ-TERT-LT-ST fibroblasts, dose response, cell-based, RAS-independent, luminescence (AID 1935);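 further: BJ fibroblasts immortalized with TERT plus LT and ST oncogenes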", "assay_type": "functional", "settings": "Homo sapiens"}, "[19]": {"experiment": "cytotoxicity toward DRD oncogenic fibroblasts, dose response, cell-based, non-viral oncogenic, luminescence (AID 1934)", "assay_type": "functional", "settings": "Homo sapiens"}, "BJ [20]": {"test_system": "BJ", "experiment": "cytotoxicity toward Ras-transformed BJeLR fibroblasts, dose response, cell-based, alamar blue fluorescence, cherrypicked samples (AID 2631);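 further: confirmatory dose-response assay in RAS-dependent BJ fibroblasts engineered with TERT, LT and ST, with cytotoxicity read by fluorescence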", "assay_type": "functional", "settings": "Homo sapiens"}, "BJ [21]": {"test_system": "BJ", "experiment": "cytotoxicity toward BJ-TERT fibroblasts, dose response, cell-based, RAS-independent, luminescence (AID 1933)", "assay_type": "functional", "settings": "Homo sapiens"}}, "note": "Activity calls are given as the source filed them.", "data": [{"smiles": "COc1ccc(Oc2c(-c3ccccc3)cnn(-c3ccc(C)cc3)c2=O)cc1", "values": [{"measurement": "IC50", "setting": "[1]", "result": "20 µM (inactive)"}, {"measurement": "IC50", "setting": "[2]", "result": "> 20 µM (inactive)"}]}, {"smiles": "C/N=C1\\SC(CC(=O)Nc2ccccc2F)C(=O)N1C", "note": "(stereo not drawn)", "values": [{"measurement": "EC50", "setting": "[3]", "result": "> 55.7 µM (not active)"}, {"measurement": "EC50", "setting": "[4]", "result": "> 55.7 µM (not active)"}]}, {"smiles": "CC(=O)Oc1cc(C(C)C)c(OCCN(C)C)cc1C", "note": "[MOXISYLYTE]", "values": [{"measurement": "AC50", "setting": "Cytochrome P450 2D6 [5]", "result": "10 µM (inconclusive)"}, {"measurement": "AC50", "setting": "Cytochrome P450 2D6 [6]", "result": "10 µM (inconclusive)"}]}, {"smiles": "CCOC(=O)C1=C(CS(=O)(=O)c2ccc(F)cc2)NC(=O)NC1c1ccc(O)c(O)c1", "note": "(stereo not drawn)", "values": [{"measurement": "IC50", "setting": "Aspartyl aminopeptidase", "result": "1.52 µM (active)"}, {"measurement": "IC50", "setting": "Procathepsin L", "result": "> 59.6 µM (not active)"}]}, {"smiles": "COc1ccccc1/N=c1\\scc(-c2ccc3c(c2)NC(=O)CO3)n1CC1CCCO1", "note": "(stereo not drawn)", "values": [{"measurement": "IC50", "setting": "[7]", "result": "5.52 µM (active)"}, {"measurement": "IC50", "setting": "[8]", "result": "> 32", "unit": "µM"}, {"measurement": "EC50", "setting": "Beta-galactosidase", "result": "> 31.5 µM (inactive)"}, {"measurement": "IC50", "setting": "[9]", "result": "> 32 µM (inactive)"}, {"measurement": "EC50", "setting": "Mu-type opioid receptor", "result": "> 32 µM (inactive)"}, {"measurement": "EC50", "setting": "[10]", "result": "> 32 µM (inactive)"}]}, {"smiles": "Nc1ccc2[nH]c(-c3ccc(N)c(Cl)c3)nc2c1", "values": [{"measurement": "IC50", "setting": "[11]", "result": "4.1 µM (active)"}, {"measurement": "IC50", "setting": "[12]", "result": "35.6 µM (active)"}]}, {"smiles": "CCn1nc(C)c(CN2CCc3c([nH]c4ccccc34)C2c2ccc(F)c(OC)c2)c1C", "note": "(stereo not drawn)", "values": [{"measurement": "IC50", "setting": "[13]", "result": "2.29 µM (active)"}, {"measurement": "IC50", "setting": "[14]", "result": "13.6 µM (inactive)"}]}, {"smiles": "COc1ccc(Nc2nnc(SCc3cn4c(C)cccc4n3)s2)cc1", "values": [{"measurement": "IC50", "setting": "Exodeoxyribonuclease V", "result": "> 119 µM (inactive)"}, {"measurement": "IC50", "setting": "[15]", "result": "> 119 µM (inactive)"}]}, {"smiles": "COc1ccccc1/C=C1\\SC(=S)N(CCC(=O)NC2=NCCS2)C1=O", "values": [{"measurement": "IC50", "setting": "[16]", "result": "> 80 µM (inactive)"}]}, {"smiles": "O=C(NCc1cccnc1)c1ccc(NC(=O)c2cccc([N+](=O)[O-])c2)cc1", "values": [{"measurement": "IC50", "setting": "[13]", "result": "0.576 µM (active)"}, {"measurement": "IC50", "setting": "[14]", "result": "> 16 µM (inactive)"}, {"measurement": "EC50", "setting": "BJ [17]", "result": "2.19 µM (inconclusive)"}, {"measurement": "EC50", "setting": "BJ [18]", "result": "19.3 µM (active)"}, {"measurement": "EC50", "setting": "[19]", "result": "> 150 µM (not active)"}, {"measurement": "EC50", "setting": "BJ [20]", "result": "36 µM (active)"}, {"measurement": "EC50", "setting": "BJ [21]", "result": "27.4 µM (active)"}]}]}
